Molecular target: T1, human NaV1.6 (hNaV1.6) (Homo sapiens, UniProt Q9UQD0)
T1 construct: expressed in transfected cells; host or cells: HEK-293
Assay: Modulation of late sodium current (INaL), PatchXpress high throughput electrophysiology
Format: cell-based
Conditions: HEK293, HEK-293 cells expressing recombinant human NaV1.6, late current evoked by 300 nM ATX-II, read-out: NaV 1.6 Assay Data (percent inhibition of INaL at hNaV1.6)
Method: Functional characterization of exemplary compounds to modulate INaL expressed by the NaV1.6 voltage-gated sodium channel was accomplished using the PatchXpress™ high throughput electrophysiology platform (Molecular Devices, Sunnyvale, CA). HEK-293 cells expressing recombinant, human NaV1.6 (hNaV1.6) were grown in DMEM/high-glucose Dulbecco's modified, 10% FBS, 2 mM sodium pyruvate, 10 mM HEPES and 400 μg/mL G418. Cells were grown to 50%-80% confluency prior to harvesting. Trypsinized cells were washed, allowed to recover for 1 hour and then resuspended in extracellular recording solution at a concentration of 1×10^6 cells/ml. The onboard liquid handling facility of the PatchXpress was used for dispensing cells and applying test compounds. NaV late currents were evoked by the application of 300 nM ATX-II. INaL was evoked by depolarizing pulses to 0 mV for 200 ms from a non-inactivating holding potential (e.g., −120 mV) at a frequency of 0.1 Hz. INaL amplitude and stability were determined by analyzing the mean current amplitude over the final 20 ms of thetest pulse. Following steady state block with exemplary compounds (e.g., as described herein), a Na+ free solution containing an impermeant cation (e.g., Choline or NDMG) was added to confirm the identify of the sodium current. Percent steady-state inhibition of INaL was calculated as: [(INaL_compound)/(INaL_control)]*100, where INaL_compound and INaL_control represent INaL recorded in the presence or absence of compound, respectively.

T1 sequence (Q9UQD0 whole entry): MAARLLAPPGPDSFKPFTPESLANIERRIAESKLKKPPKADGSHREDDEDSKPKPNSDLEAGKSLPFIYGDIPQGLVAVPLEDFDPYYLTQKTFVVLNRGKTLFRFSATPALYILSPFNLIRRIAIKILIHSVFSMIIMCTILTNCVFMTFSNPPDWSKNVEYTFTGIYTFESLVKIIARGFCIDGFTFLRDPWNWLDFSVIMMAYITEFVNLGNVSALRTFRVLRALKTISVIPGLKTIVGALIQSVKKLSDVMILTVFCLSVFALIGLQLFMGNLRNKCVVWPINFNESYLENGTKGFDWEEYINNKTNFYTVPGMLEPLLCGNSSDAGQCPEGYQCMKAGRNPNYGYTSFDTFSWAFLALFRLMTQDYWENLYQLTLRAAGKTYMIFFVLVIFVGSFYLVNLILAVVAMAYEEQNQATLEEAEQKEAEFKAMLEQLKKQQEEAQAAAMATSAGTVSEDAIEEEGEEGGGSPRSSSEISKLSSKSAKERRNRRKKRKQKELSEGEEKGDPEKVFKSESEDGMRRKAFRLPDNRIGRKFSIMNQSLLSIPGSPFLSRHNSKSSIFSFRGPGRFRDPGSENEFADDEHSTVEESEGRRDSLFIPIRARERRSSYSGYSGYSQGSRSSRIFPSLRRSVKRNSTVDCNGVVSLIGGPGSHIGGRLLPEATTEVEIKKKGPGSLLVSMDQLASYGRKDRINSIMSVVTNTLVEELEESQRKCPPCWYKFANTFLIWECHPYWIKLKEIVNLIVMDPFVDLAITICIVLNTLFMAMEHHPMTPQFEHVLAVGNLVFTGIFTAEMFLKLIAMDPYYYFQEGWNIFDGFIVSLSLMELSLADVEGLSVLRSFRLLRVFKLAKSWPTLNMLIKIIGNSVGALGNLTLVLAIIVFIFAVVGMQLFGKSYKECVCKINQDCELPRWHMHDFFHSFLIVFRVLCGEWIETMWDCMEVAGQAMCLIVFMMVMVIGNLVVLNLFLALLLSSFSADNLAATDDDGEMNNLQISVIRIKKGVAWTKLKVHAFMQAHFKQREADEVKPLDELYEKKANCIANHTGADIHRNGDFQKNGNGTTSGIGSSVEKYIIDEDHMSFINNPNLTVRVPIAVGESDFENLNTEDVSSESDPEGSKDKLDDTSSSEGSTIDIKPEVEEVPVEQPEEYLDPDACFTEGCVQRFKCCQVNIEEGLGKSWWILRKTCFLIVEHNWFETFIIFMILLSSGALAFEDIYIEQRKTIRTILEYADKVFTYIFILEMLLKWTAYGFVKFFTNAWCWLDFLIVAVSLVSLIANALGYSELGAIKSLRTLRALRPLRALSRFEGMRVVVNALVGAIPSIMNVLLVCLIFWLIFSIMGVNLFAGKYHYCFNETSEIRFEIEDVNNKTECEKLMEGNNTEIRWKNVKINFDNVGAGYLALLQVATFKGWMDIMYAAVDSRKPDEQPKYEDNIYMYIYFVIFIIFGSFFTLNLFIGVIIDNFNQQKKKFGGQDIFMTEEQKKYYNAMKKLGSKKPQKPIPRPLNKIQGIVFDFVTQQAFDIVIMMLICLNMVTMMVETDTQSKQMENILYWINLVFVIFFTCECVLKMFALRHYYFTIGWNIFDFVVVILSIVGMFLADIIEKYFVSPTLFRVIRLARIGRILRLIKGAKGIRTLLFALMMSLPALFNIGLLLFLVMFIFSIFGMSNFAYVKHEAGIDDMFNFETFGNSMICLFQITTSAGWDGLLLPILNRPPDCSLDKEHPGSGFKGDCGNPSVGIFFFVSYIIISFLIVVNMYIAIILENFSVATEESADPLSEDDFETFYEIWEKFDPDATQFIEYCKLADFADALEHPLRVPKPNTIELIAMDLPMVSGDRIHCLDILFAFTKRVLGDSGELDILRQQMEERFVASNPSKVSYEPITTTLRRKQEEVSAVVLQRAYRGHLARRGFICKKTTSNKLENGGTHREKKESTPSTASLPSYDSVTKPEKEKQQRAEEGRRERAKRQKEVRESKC

| inhibition at 1 µM | SMILES |
| --- | --- |
| 30 to 70% | CCOC(F)(F)c1nnc2cnc(-c3ccc(OC(F)(F)F)c(C)c3)cn12 [Compound 9, 3-[ethoxy(difluoro)methyl]-6-[3-methyl-4-(trifluoromethoxy)phenyl]-[1,2,4]triazolo[4,3-a]pyrazine] |
| 30 to 70% | CCOCc1nnc2cnc(-c3ccc(OC(F)(F)F)cc3C)cn12 [Compound 5, 3-(ethoxymethyl)-6-[2-methyl-4-(trifluoromethoxy)phenyl]-[1,2,4]triazolo[4,3-a]pyrazine] |
| > 70% | COC(F)(F)c1nnc2cnc(-c3cc(C)c(OC(F)(F)F)cc3F)cn12 [Compound 42, 3-[difluoro(methoxy)methyl]-6-[2-fluoro-5-methyl-4-(trifluoromethoxy)phenyl]-[1,2,4]triazolo[4,3-a]pyrazine] |
| 30 to 70% | CCOC(F)(F)c1nnc2cnc(-c3ccc(O[C@@H](C)C(F)(F)F)cc3C)cn12 (single isomer, unassigned) [Compound 30] |
| 30 to 70% | Cc1cc(OC(F)(F)F)ccc1-c1cn2c(C(F)(F)OC(C)C)nnc2cn1 [Compound 10, 3-(difluoro(isopropoxy)methyl)-6-(2-methyl-4-(trifluoromethoxy)phenyl)-[1,2,4]triazolo[4,3-a]pyrazine] |
| < 30% | COC(F)(F)c1nnc2cnc(-c3ccc(OC(F)(F)F)c(C)c3)cn12 [Compound 11, 3-(difluoro(methoxy)methyl)-6-(3-methyl-4-(trifluoromethoxy)phenyl)-[1,2,4]triazolo[4,3-a]pyrazine] |
| < 30% | CCOC(F)(F)c1nnc2ccc(-c3ccc(OC(F)(F)F)cc3C)nn12 [Compound 15, 3-[ethoxy(difluoro)methyl]-6-[2-methyl-4-(trifluoromethoxy)phenyl]-[1,2,4]triazolo[4,3-b]pyridazine] |

| SMILES | inhibition at 1 µM |
| --- | --- |
| CCOC(F)(F)c1nnc2cnc(-c3ccc(OC4CC(F)(F)C4)cc3C)cn12 [Compound 38, 6-[4-(3,3-difluorocyclobutoxy)-2-methyl-phenyl]-3-[ethoxy(difluoro)methyl]-[1,2,4]triazolo[4,3-a]pyrazine] | > 70% |

Source: patent US12479844B2, “Ion channel modulators” (Praxis Precision Medicines, Inc., priority 2018, dated 2025)
